Patent publication US12564595B2, “Prophylactic and therapeutic pharmaceutical agent for HIV infectious diseases characterized by comprising combination of integrase inhibitor and anti-HIV agent” (Shionogi & Co., Ltd., priority 2019, dated 2026)

Biological target: T1, voltage-gated sodium channel (Nav 1.5 channel) (Homo sapiens, UniProt Q14524)
T1 construct: expressed in transfected cells; host or cells: HEK cells
Experiment: Test Example 14: Nav test (patch clamp, HEK cells)
Assay type: cell-based
Conditions: HEK cells expressing Nav 1.5 channel, whole cell patch clamp
Protocol: Using a fully automatic patch clamp system (QPatch: Sophion Bioscience A/S), by the whole cell patch clamp method, the cells were maintained at a membrane potential of −100 mV and the induced INa when a −10 mV depolarization stimulus was applied for 20 msec was recorded. […] From the INa obtained, using analysis software (QPatch: Sophion Bioscience A/S), the absolute value of the maximum peak current was measured, with reference to the current value at the maintained membrane potential.

T1 sequence (Q14524 whole entry): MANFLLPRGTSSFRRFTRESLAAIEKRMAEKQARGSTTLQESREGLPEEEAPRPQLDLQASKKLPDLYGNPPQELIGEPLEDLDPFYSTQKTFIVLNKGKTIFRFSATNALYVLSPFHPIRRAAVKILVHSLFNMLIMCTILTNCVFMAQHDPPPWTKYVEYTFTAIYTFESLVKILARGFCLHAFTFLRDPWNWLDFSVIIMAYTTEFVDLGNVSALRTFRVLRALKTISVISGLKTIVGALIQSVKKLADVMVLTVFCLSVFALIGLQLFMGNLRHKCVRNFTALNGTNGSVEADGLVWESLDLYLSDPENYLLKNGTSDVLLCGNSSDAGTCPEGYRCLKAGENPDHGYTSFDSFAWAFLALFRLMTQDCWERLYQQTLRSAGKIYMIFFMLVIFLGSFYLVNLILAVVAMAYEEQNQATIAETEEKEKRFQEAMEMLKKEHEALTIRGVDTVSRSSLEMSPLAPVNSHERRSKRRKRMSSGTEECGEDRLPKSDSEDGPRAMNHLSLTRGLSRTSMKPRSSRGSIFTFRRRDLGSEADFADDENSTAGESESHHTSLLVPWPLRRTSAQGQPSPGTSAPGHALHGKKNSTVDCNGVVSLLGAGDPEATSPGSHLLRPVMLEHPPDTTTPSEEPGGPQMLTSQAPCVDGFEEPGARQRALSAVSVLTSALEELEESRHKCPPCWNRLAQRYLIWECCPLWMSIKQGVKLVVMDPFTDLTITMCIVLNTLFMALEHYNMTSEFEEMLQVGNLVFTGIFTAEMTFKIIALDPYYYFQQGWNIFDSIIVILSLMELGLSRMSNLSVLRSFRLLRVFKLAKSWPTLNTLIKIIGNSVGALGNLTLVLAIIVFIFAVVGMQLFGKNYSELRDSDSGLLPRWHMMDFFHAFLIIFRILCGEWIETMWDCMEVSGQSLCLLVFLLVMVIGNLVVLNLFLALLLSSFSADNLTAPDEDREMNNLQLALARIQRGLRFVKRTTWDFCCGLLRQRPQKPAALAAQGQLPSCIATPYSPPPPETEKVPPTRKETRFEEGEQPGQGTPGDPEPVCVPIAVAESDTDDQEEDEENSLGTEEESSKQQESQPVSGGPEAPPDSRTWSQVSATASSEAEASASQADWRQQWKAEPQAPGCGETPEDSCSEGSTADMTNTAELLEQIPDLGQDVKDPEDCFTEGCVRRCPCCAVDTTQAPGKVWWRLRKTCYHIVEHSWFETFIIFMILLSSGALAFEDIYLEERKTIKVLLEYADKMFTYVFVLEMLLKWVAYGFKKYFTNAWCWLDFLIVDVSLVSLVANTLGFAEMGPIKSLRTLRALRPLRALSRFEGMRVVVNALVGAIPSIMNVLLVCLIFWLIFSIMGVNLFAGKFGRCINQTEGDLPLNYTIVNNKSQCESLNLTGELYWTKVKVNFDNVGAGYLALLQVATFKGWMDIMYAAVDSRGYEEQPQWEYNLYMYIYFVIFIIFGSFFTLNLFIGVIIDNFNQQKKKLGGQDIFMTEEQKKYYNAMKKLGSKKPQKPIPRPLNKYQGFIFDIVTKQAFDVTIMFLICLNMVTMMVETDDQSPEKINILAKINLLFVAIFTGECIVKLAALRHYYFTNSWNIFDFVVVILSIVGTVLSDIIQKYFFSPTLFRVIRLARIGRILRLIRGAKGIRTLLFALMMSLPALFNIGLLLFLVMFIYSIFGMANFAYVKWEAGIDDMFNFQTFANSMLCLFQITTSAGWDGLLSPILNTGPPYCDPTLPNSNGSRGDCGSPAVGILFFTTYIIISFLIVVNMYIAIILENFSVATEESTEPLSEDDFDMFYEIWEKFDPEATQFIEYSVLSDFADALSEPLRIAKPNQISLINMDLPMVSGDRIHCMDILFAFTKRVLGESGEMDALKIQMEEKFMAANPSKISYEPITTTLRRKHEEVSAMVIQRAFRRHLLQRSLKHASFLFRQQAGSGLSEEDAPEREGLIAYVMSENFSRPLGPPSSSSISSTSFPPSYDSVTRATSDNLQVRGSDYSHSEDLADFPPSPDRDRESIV

Structure (SMILES)	ratio of maximum peak current (INa) on application of compound to that on application of medium [%]
CCN1C(=O)c2c(O)c(=O)c(-c3nnc(Cc4cc(F)c(F)cc4F)s3)cn2N2CCCC[C@@H]12 [Compound I-022]	97.1
CCN1C(=O)c2c(O)c(=O)c(-c3nnc(Cc4ccc(F)cc4F)s3)cn2N2C[C@@H](C)C[C@@H]12 [II-109]	93.3
CN1C(=O)c2c(O)c(=O)c(-c3nnc(Cc4ccc(F)cc4F)s3)cn2N2CCCC[C@@H]12 [II-098]	96.7

Test system: HIV mutant strain 1 (E138K/G140S/Q148H/N155H)
Experiment: Test Example 2: resistance evaluation test (HeLa-CD4 reporter), mutant strain 1
Assay type: cell-based
Conditions: FC=EC50 of mutant strain/EC50 of wild strain; HeLa-CD4 cells
Procedure, shortened: (§1)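 HeLa-CD4 reporter cells were infected with wild-type or mutant HIV in the presence of serially diluted compound and cultured 3 days. Cell lysates were read by chemiluminescent reporter assay after about 1 h at room temperature. Fold change was calculated as mutant EC50 divided by wild-type EC50.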

Structure (SMILES)	FC in respect of mutant strain 1 (E138K/G140S/Q148H/N155H)
CCN1C(=O)c2c(O)c(=O)c(-c3nnc(Cc4cc(F)c(F)cc4F)s3)cn2N2CCCC[C@@H]12 [Compound I-022]	23
CCN1C(=O)c2c(O)c(=O)c(-c3nnc(Cc4ccc(F)cc4F)s3)cn2N2C[C@@H](C)C[C@@H]12 [II-109]	4.1
CN1C(=O)c2c(O)c(=O)c(-c3nnc(Cc4ccc(F)cc4F)s3)cn2N2CCCC[C@@H]12 [II-098]	8.8

Test system: not listed separately
Experiment: Test Example 8: metabolic stability test
Assay type: in vitro ADME, human
Conditions: pooled human liver microsomes, 30 min at 37° C., NADPH, compound concentration 0.5 μmol/L
Procedure, shortened: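 Pooled human liver microsomes (0.5 mg protein/mL, Tris-HCl pH 7.4) incubated with compound and 1 mmol/L NADPH for 0 or 30 min at 37° C. After methanol/acetonitrile quench, remaining parent was quantified by LC/MS/MS or SPE/MS and expressed as % of the 0 min amount.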

Structure (SMILES)	Remaining percentage [%]
CCN1C(=O)c2c(O)c(=O)c(-c3nnc(Cc4cc(F)c(F)cc4F)s3)cn2N2CCCC[C@@H]12 [Compound I-022]	72.2
CCN1C(=O)c2c(O)c(=O)c(-c3nnc(Cc4ccc(F)cc4F)s3)cn2N2C[C@@H](C)C[C@@H]12 [II-109]	98.3
CN1C(=O)c2c(O)c(=O)c(-c3nnc(Cc4ccc(F)cc4F)s3)cn2N2CCCC[C@@H]12 [II-098]	109

Test system: HIV mutant strain 2 (E92Q/E138T/G140S/Q148H)
Experiment: Test Example 2: resistance evaluation test (HeLa-CD4 reporter), mutant strain 2
Assay type: cell-based
Conditions: FC=EC50 of mutant strain/EC50 of wild strain; HeLa-CD4 cells
Procedure, shortened: as §1

Structure (SMILES)	FC in respect of mutant strain 2 (E92Q/E138T/G140S/Q148H)
CCN1C(=O)c2c(O)c(=O)c(-c3nnc(Cc4cc(F)c(F)cc4F)s3)cn2N2CCCC[C@@H]12 [Compound I-022]	46
CCN1C(=O)c2c(O)c(=O)c(-c3nnc(Cc4ccc(F)cc4F)s3)cn2N2C[C@@H](C)C[C@@H]12 [II-109]	2.5
CN1C(=O)c2c(O)c(=O)c(-c3nnc(Cc4ccc(F)cc4F)s3)cn2N2CCCC[C@@H]12 [II-098]	12

Test system: HIV
Experiment: Test Example 3: test for confirmation of combined use effect
Assay type: cell-based
Set-up: key to D value (dosewise additivity value): <-0.1 synergy, -0.1 to 0.1 additive, >0.1 antagonism
Conditions: combination with compound (B) Compound C (CAI)
Text: The two compounds in respect of which the effect of combined use was desired to be examined were mixed in various ratios, and the anti-HIV activity (50% HIV inhibiting concentration) for each combination was found by the method of test example 1. […] A brief description of the method of calculating the D value is given below.
The D value that is found by evaluating the anti-HIV activity of respective combinations of M concentrations of compound X1 and N concentrations of compound X2 is calculated by the following mathematical expression 1.
The effect of combined use was evaluated in terms of the D value in accordance with the following criteria • −0.5 to −0.2: strong synergetic effect • −0.2 to −0.1: weak synergetic effect • […]: additive synergetic effect • 0.1 to 0.2: weak antagonism • 0.2 to 0.5: strong antagonism

Structure (SMILES)	D value (dosewise additivity value)	effect of combined use
CCN1C(=O)c2c(O)c(=O)c(-c3nnc(Cc4ccc(F)cc4F)s3)cn2N2C[C@@H](C)C[C@@H]12 [II-109]	0.071	Additive (−0.1 to −0.1: additive synergetic effect)

Same assay, conditions: combination with compound (B) Darunavin (PI)

Structure (SMILES)	D value (dosewise additivity value)
CCN1C(=O)c2c(O)c(=O)c(-c3nnc(Cc4ccc(F)cc4F)s3)cn2N2C[C@@H](C)C[C@@H]12 [II-109]	−0.143

Same assay, conditions: combination with compound (B) Darunavir (PI)

Structure (SMILES)	effect of combined use
CCN1C(=O)c2c(O)c(=O)c(-c3nnc(Cc4ccc(F)cc4F)s3)cn2N2C[C@@H](C)C[C@@H]12 [II-109]	Weak synergy (−0.2 to −0.1: weak synergetic effect)

Same assay, conditions: combination with compound (B) GS-6207 (CAI)

Structure (SMILES)	D value (dosewise additivity value)	effect of combined use
CCN1C(=O)c2c(O)c(=O)c(-c3nnc(Cc4ccc(F)cc4F)s3)cn2N2C[C@@H](C)C[C@@H]12 [II-109]	−0.059	Additive (−0.1 to −0.1: additive synergetic effect)

Same assay, conditions: combination with compound (B) GSK2838232 (maturation inhibitor)

Structure (SMILES)	D value (dosewise additivity value)	effect of combined use
CCN1C(=O)c2c(O)c(=O)c(-c3nnc(Cc4ccc(F)cc4F)s3)cn2N2C[C@@H](C)C[C@@H]12 [II-109]	−0.054	Additive (−0.1 to −0.1: additive synergetic effect)

Same assay, conditions: combination with compound (B) I′-189 (INLAI)

Structure (SMILES)	D value (dosewise additivity value)	effect of combined use
CCN1C(=O)c2c(O)c(=O)c(-c3nnc(Cc4ccc(F)cc4F)s3)cn2N2C[C@@H](C)C[C@@H]12 [II-109]	0.056	Additive (−0.1 to −0.1: additive synergetic effect)

Same assay, conditions: combination with compound (B) Lilpiperine (polymerase inhibitor)

Structure (SMILES)	effect of combined use
CCN1C(=O)c2c(O)c(=O)c(-c3nnc(Cc4ccc(F)cc4F)s3)cn2N2C[C@@H](C)C[C@@H]12 [II-109]	Additive (−0.1 to −0.1: additive synergetic effect)

Same assay, conditions: combination with compound (B) Ramipzin (3TC) (polymerase inhibitor)

Structure (SMILES)	D value (dosewise additivity value)	effect of combined use
CCN1C(=O)c2c(O)c(=O)c(-c3nnc(Cc4ccc(F)cc4F)s3)cn2N2C[C@@H](C)C[C@@H]12 [II-109]	−0.145	Weak synergy (−0.2 to −0.1: weak synergetic effect)

Same assay, conditions: combination with compound (B) Rilpivirine (polymerase inhibitor)

Structure (SMILES)	D value (dosewise additivity value)
CCN1C(=O)c2c(O)c(=O)c(-c3nnc(Cc4ccc(F)cc4F)s3)cn2N2C[C@@H](C)C[C@@H]12 [II-109]	−0.096

Same assay, conditions: combination with compound (B) VM-1500 (polymerase inhibitor)

Structure (SMILES)	D value (dosewise additivity value)	effect of combined use
CCN1C(=O)c2c(O)c(=O)c(-c3nnc(Cc4ccc(F)cc4F)s3)cn2N2C[C@@H](C)C[C@@H]12 [II-109]	−0.094	Additive (−0.1 to −0.1: additive synergetic effect)

Test system: HIV
Experiment: microbe, parasite or virus in culture
Assay type: cell-based
Conditions: Human immunodeficiency virus 1, MT4, 96 h, read-out: EC50 (50% HIV inhibition concentration), MT-4 cells, HIV, cultured four days, MTT; compounds of formula (I) of (A)
Protocol: A serial dilution series of test samples was prepared in 96-well microplates (50 μL/well).
100 μL/well in each case were dispensed onto plates having test samples of 2.5×10^5/mL MT-4 cell suspension, and HIV virus solution was then dispensed thereto in the amount of 50 μL/well. Mixing was performed using a plate mixer and culturing was performed for four days in a CO2 incubator. MTT (3-(4,5-dimethylthiazol-2-yl)-2,5-diphenyltetrazolium bromide) liquid was dispensed into each well in the amount of 30 μL in each case. The reaction was conducted for 1 h in a CO2 incubator. 150 μL of supernatant were removed from each well, taking care not to aspirate any cells. 150 μL of cell solution were added, and thorough mixing was performed with a plate mixer until all the cells had been dissolved. The optical absorbance of the mixed plates was measured at two wavelengths: 560 nm/690 nm, with a microplate reader.

Structure (SMILES)	EC50 [nM]
CCN1C(=O)c2c(O)c(=O)c(-c3nnc(Cc4cc(F)c(F)cc4F)s3)cn2N2CCCC[C@@H]12 [Compound I-022]	4.8
CCN1C(=O)c2c(O)c(=O)c(-c3nnc(Cc4ccc(F)cc4F)s3)cn2N2C[C@@H](C)C[C@@H]12 [II-109]	1.2
CN1C(=O)c2c(O)c(=O)c(-c3nnc(Cc4ccc(F)cc4F)s3)cn2N2CCCC[C@@H]12 [II-098]	0.62

Test system: HIV
Experiment: Test Example 16: anti-HIV activity in the presence of human serum protein (MT-4 cells)
Assay type: cell-based
Conditions: 100% extrapolation value, PS=4×(EC50 with 25% human serum protein/EC50 with no human serum protein)
Protocol: A stage dilution series of the test samples was created on a 96-well microplate (50 μL/well).
Aliquots of human serum protein solution (human serum protein concentration 50%) were dispensed in the amount of 100 μL/well to a 96-well microplate containing the test sample. This was then left to stand for 1 h at room temperature. Culture medium in the amount of 100 μL/well in each case was dispensed to a serum-free plate for control purposes. Aliquots of MT-4 cells in the amount of 3.0×10^5/well and HIV virus liquid in the amount of 3 μL/well were mixed for the necessary number of wells and reacted for 1 h at 37° C. After the reaction, the cell suspension was centrifuged and the supernatant discarded; aliquots of infected cells were distributed to culture medium in the amount of 50 μL/well and were dispensed in the amount of 50 μL/well in each case into the wells of a 96-well microplate containing test samples and human serum protein (human serum protein concentration: 25%). Mixing was performed using a plate mixer and culturing was performed for four days with a CO2 incubator. […] MTT(3-(4, 5-dimethylthiazol-2-yl)-2, 5-diphenyltetrazolium bromide) liquid in the amount of 30 μL was dispensed to each of the wells. The reaction was performed for 1 h in a CO2 incubator. 150 μL supernatant was removed to avoid aspirating cells from the wells. 150 μL of cell solution was added and thorough mixing was performed, using a plate mixer, until all the cells were dissolved. The optical absorbance on the mixed plate was measured at two wavelengths, namely, 560 nm/690 nm, using a microplate reader.
Next, the potency shift (PS) was calculated, using the following formula. The PS is the value of the human serum protein concentration, extrapolated to 100%.

Structure (SMILES)	potency shift (PS) in the presence of human serum protein
CCN1C(=O)c2c(O)c(=O)c(-c3nnc(Cc4ccc(F)cc4F)s3)cn2N2C[C@@H](C)C[C@@H]12 [II-109]	56
